Assay results from ChEMBL document CHEMBL3039007, “Structure-based identification of OATP1B1/3 inhibitors” (Mol Pharmacol, 2013).
Starred links: 1 amine or outer side, 2 acyl side, 3 side chain; linkers in the order of their positions; H or OH if unused. Positions of bridges follow the written chain, without caps; N, C: chain ends. Non-standard residues stand in square brackets, D forms with d. Residues, ends and D or L forms follow the SMILES beside them. Chains are numbered I, II in the order given. Actinocin(9to1) = Cc1c2oc3c(C)ccc(C(=O)[*:1])c3nc-2c(C(=O)[*:2])c(N)c1=O; NMeV = CN[C@H](C(=O)O)C(C)C; Sar = CNCC(=O)O

Key:
[1] = target: T1, Solute carrier organic anion transporter family member 1B1 (Homo sapiens, UniProt Q9Y6L6); conditions: chinese hamster, cho, 10 µM
T1 sequence (Q9Y6L6 whole entry): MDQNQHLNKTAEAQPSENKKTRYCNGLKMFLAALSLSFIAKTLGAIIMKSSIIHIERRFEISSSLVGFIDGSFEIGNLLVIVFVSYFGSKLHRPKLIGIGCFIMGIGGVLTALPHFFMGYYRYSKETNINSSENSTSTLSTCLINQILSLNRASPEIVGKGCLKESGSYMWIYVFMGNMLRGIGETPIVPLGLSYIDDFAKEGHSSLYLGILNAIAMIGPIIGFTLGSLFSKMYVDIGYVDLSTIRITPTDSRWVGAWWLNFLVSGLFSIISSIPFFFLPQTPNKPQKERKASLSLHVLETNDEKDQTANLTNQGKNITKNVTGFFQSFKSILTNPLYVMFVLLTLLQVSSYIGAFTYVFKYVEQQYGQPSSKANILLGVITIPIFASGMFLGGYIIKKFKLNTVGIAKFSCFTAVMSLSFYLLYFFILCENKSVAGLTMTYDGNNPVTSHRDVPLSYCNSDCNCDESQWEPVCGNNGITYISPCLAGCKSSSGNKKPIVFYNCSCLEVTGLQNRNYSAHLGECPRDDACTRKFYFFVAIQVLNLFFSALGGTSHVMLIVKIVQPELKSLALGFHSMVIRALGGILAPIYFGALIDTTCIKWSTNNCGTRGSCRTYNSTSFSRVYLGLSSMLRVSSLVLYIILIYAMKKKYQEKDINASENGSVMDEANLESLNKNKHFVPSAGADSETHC

[2] = target: T2, Solute carrier organic anion transporter family member 1B3 (Homo sapiens, UniProt Q9NPD5); conditions: chinese hamster, cho, 10 µM
T2 sequence (Q9NPD5 whole entry): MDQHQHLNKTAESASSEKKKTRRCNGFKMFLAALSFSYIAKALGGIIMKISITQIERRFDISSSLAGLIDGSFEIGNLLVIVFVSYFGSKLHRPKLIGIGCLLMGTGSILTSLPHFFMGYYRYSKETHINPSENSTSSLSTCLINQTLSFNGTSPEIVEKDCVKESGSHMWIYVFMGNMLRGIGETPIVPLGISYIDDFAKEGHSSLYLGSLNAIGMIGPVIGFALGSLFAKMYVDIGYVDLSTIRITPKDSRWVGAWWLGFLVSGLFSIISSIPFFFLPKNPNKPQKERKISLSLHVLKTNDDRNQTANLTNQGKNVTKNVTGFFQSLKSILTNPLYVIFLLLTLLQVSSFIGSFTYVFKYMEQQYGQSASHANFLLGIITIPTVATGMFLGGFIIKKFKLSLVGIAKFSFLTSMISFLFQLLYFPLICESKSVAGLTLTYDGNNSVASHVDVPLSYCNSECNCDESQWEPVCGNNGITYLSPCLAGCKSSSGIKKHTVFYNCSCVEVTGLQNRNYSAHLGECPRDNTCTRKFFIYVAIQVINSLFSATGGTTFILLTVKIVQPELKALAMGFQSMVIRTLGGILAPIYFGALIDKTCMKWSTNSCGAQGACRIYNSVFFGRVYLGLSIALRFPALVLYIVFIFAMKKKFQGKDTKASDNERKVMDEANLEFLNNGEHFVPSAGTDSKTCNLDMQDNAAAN

Row | SMILES | residual activity [1] | residual activity [2]
1 | Cl.Clc1ccc(C(OCCN2CCCCC2)c2ccccc2)cc1 (configuration not stated) [CLOPERASTINE HYDROCLORIDE] | 53.44% | 89.01%
2 | COC(=O)[C@H](c1ccccc1Cl)N1CCc2sccc2C1.O=S(=O)(O)O [CLOPIDOGREL BISULFATE] | 145.3% | 96.14%
3 | Cc1nc(C)c(Cl)c(O)c1Cl [CLOPIDOL] | 154.4% | 91.88%
4 | CC(=O)OC1CCC23CC1(C)CCC2C(C)(C)CC3OC(C)=O (configuration not stated) [CLOVANEDIOL DIACETATE] | 109.5% | 85.3%
5 | CN1CCN(C2=Nc3cc(Cl)ccc3Nc3ccccc32)CC1 [CLOZAPINE] | 86.29% | 93.38%
6 | COc1cc2c(c(OC)c1OC)-c1ccc(=O)c(O)cc1[C@@H](NC(C)=O)CC2 [COLCHICEINE] | 124% | 109.6%
7 | COc1cc2c(c(OC)c1OC)-c1ccc(OC)c(=O)cc1[C@@H](NC(C)=O)CC2 [COLCHICINE] | 75.12% | 101%
8 | C=C[C@@]1(C)CC(=O)[C@]2(O)[C@@]3(C)[C@@H](O)CCC(C)(C)[C@@H]3[C@H](O)[C@H](OC(C)=O)[C@@]2(C)O1 [COLFORSIN] | 118.8% | 83.25%
9 | CCC[C@H]1CCCCN1 [CONIINE] | 105.3% | 100.1%
10 | C[C@@H]1O[C@@H](O[C@H]2CC[C@]3(C=O)[C@H]4CC[C@]5(C)[C@@H](C6=CC(=O)OC6)CC[C@]5(O)[C@@H]4CC[C@]3(O)C2)[C@H](O)[C@H](O)[C@H]1O [CONVALLATOXIN] | 102.3% | 95.81%
11 | CC(=O)OCC(=O)[C@@]1(O)CC[C@H]2[C@@H]3CCC4=CC(=O)CC[C@]4(C)[C@H]3C(=O)C[C@@]21C [CORTISONE ACETATE] | 103.3% | 98.8%
12 | C[C@]12CCC(=O)C=C1CC[C@@H]1[C@@H]2C(=O)C[C@@]2(C)[C@H]1CC[C@]2(O)C(=O)CO [CORTISONE] | 76.37% | 69.54%
13 | COc1c2c(cc3c1OCO3)CC[N+](C)=C2.[Cl-] [COTARNINE CHLORIDE] | 85.95% | 93.29%
14 | CCOP(=S)(OCC)Oc1ccc2c(C)c(Cl)c(=O)oc2c1 [COUMAPHOS] | 99.64% | 124.8%
15 | NC1=NCCN1CC(=O)O [CYCLOCREATINE] | 108.2% | 127.5%
16 | NC1(C(=O)O)CCCC1 [CYCLOLEUCINE] | 99.09% | 108.5%
17 | CO[C@H]1C[C@H](O[C@H]2CC[C@]3(C=O)[C@H]4CC[C@]5(C)[C@@H](C6=CC(=O)OC6)CC[C@]5(O)[C@@H]4CC[C@]3(O)C2)O[C@H](C)[C@H]1O [CYMARIN] | 87.74% | 87.59%
18 | CC(=O)[C@@]1(O)CC[C@H]2[C@@H]3C=C(Cl)C4=CC(=O)[C@@H]5C[C@@H]5[C@]4(C)[C@H]3CC[C@@]21C [CYPROTERONE] | 30.6% | 112.2%
19 | Cl.Cl.NCCSSCCN [CYSTAMINE DIHYDROCHLORIDE] | 111.3% | 89.2%
20 | Nc1ccn([C@@H]2O[C@H](CO)[C@@H](O)[C@@H]2O)c(=O)n1 [CYTARABINE] | 78.64% | 95.76%
21 | Nc1ccn([C@@H]2O[C@H](CO)[C@@H](O)[C@H]2O)c(=O)n1 [CYTIDINE] | 99.44% | 114%
22 | O=c1cccc2n1C[C@@H]1CNC[C@H]2C1 [CYTISINICLINE] | 99.71% | 106.2%
23 | CN(C)/N=N/c1[nH]cnc1C(N)=O [DACARBAZINE] | 97.65% | 90.13%
24 | COC(=O)c1c(Cl)c(Cl)c(C(=O)OC)c(Cl)c1Cl [DACTHAL] | 103.5% | 106.6%
25 | Cc1c2oc3c(C)ccc(C(=O)N[C@@H]4C(=O)N[C@H](C(C)C)C(=O)N5CCC[C@H]5C(=O)N(C)CC(=O)N(C)[C@@H](C(C)C)C(=O)O[C@@H]4C)c3nc-2c(C(=O)N[C@@H]2C(=O)N[C@H](C(C)C)C(=O)N3CCC[C@H]3C(=O)N(C)CC(=O)N(C)[C@@H](C(C)C)C(=O)O[C@@H]2C)c(N)c1=O [DACTINOMYCIN] (I: T[dV]P[Sar][NMeV] / II: T[dV]P[Sar][NMeV]; ester I:1-I:C, II:1-II:C; linker I:N-II:N via Actinocin(9to1)) | 57.98% | 85.16%

More lines, now with the values ahead:

Row | residual activity [1] | residual activity [2] | SMILES
26 | 77.9% | 76.53% | CC(C)(C)CC(C)(C)c1ccc(O)c(Cc2ccc(Cl)cc2Cl)c1 [CLOFOCTOL]
27 | 99.41% | 126.3% | CCN(CC)CCOc1ccc(C(=C(Cl)c2ccccc2)c2ccccc2)cc1 [CLOMIPHENE]
28 | 43.58% | 78.81% | CN(C)CCCN1c2ccccc2CCc2ccc(Cl)cc21.Cl [CLOMIPRAMINE HYDROCHLORIDE]
29 | 73% | 99.63% | Cl.Clc1cccc(Cl)c1NC1=NCCN1 [CLONIDINE HYDROCHLORIDE]
30 | 113.6% | 107.3% | C[C@@H]1CCC[C@H](C)N1NC(=O)c1ccc(Cl)c(S(N)(=O)=O)c1 [CLOPAMIDE]
31 | 47.3% | 63.22% | Cc1onc(-c2ccccc2Cl)c1C(=O)N[C@@H]1C(=O)N2[C@@H]1SC(C)(C)[C@@H]2C(=O)[O-].O.[Na+] [CLOXACILLIN SODIUM]
32 | 104% | 93.36% | Oc1ccc(Cl)c2cccnc12 [CLOXYQUIN]
33 | 100.9% | 111.5% | C[C@H]1[C@H]2CC[C@H]3[C@@H]4CC=C5C[C@@H](N(C)C)CC[C@]5(C)[C@H]4CC[C@]23CN1C [CONESSINE]
34 | 49.7% | 66.12% | COc1cc(/C=C/CO)ccc1O [CONIFERYL ALCOHOL]
35 | 106.5% | 150.5% | COc1cc2cc3c4cc(OC)c(OC)cc4cc[n+]3c(C)c2cc1OC.[Cl-] [CORALYNE]
36 | 95.2% | 48.4% | CC(=O)OC[C@H]1O[C@@H](Oc2cc(OC(C)=O)c3c(=O)cc(-c4ccc(OC(C)=O)cc4)oc3c2)[C@H](OC(C)=O)[C@@H](OC(C)=O)[C@@H]1OC(C)=O [COSMOSIIN HEXAACETATE]
37 | 106.5% | 103% | CN1C(=O)CC[C@H]1c1cccnc1 [COTININE]
38 | 110.4% | 119.3% | COc1ccccc1/C=C/C(=O)O [COUMARINIC ACID METHYL ETHER]
39 | 116.6% | 99.05% | O=c1ccc2ccccc2o1 [COUMARIN]
40 | 60.87% | 65.53% | C=C1C(=O)O[C@H]2C[C@@H]1C(OC(C)=O)C/C(C)=C/CC/C(C)=C/CC[C@@]2(C)O (some centres not stated) [CRASSIN ACETATE]
41 | 105.7% | 93.64% | CN1CC(=O)NC1=N [CREATININE]
42 | 101.2% | 94.62% | O=C([O-])c1cc(=O)c2c(OCC(O)COc3cccc4oc(C(=O)[O-])cc(=O)c34)cccc2o1.[Na+].[Na+] [CROMOLYN SODIUM]
43 | 88.13% | 103% | CN1CCN(C(c2ccccc2)c2ccccc2)CC1 [CYCLIZINE]
44 | 85.24% | 102.1% | CN(C)CCC=C1c2ccccc2C=Cc2ccccc21.Cl [CYCLOBENZAPRINE HYDROCHLORIDE]
45 | 87.23% | 100.2% | CN(C)CCOC(=O)C(c1ccccc1)C1(O)CCCC1.Cl (configuration not stated) [CYCLOPENTOLATE HYDROCHLORIDE]
46 | 73.08% | 84.71% | N[C@H](Cc1ccccc1)C(=O)O [D-PHENYLALANINE]
